This is an account of results in PMC8398262, “New Sulfanilamide Derivatives Incorporating Heterocyclic Carboxamide Moieties as Carbonic Anhydrase Inhibitors” (Pharmaceuticals, 2021).

The target in series [1] is T1, hCA IX (Homo sapiens, UniProt Q16790).
T1 construct: made in house
The series can be described thus: stopped-flow CO2 hydrase assay, hCA IX. As to conditions: mean from 3 different assays, errors ±5–10%. In kind it is biochemical. Here is the method: (§1) For each inhibitor, at least six traces of the initial 5–10% of the reaction were used for determining the initial velocity. The uncatalyzed rates were determined in the same manner and subtracted from the total observed rates. Stock solutions of the inhibitor (0.1 mM) were prepared in distilled–deionized water and dilutions up to 0.01 nM were done thereafter with the assay buffer. Inhibitor and enzyme solutions were preincubated together for 15 min at room temperature prior to the assay, allowing the formation of the E–I complex.

Series [2] addresses T2, hCA II (Homo sapiens, UniProt P00918).
T2 construct: made in house
The series can be described thus: stopped-flow CO2 hydrase assay, hCA II. The class given is biochemical. As to conditions: for Ki: stopped-flow CO2 hydrase assay, mean from 3 different assays, errors ±5–10%. The procedure: as §1

The target of series [3] is T3, hCA XII (Homo sapiens, UniProt O43570).
T3 construct: made in house
T3 sequence (O43570 25-354): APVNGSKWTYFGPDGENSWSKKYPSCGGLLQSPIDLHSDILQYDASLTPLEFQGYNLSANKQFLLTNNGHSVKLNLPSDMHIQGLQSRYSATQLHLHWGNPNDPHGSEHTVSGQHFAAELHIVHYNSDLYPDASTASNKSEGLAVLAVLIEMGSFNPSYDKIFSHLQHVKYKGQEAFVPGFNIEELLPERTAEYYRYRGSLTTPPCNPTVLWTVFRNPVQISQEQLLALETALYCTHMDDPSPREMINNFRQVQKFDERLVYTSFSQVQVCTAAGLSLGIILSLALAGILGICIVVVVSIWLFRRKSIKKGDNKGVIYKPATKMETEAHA
As to the kind of experiment: stopped-flow CO2 hydrase assay, hCA XII. In kind it is biochemical. As to conditions: mean from 3 different assays, errors ±5–10%. The procedure: as §1

The target in series [4] is T4, hCA I (Homo sapiens, UniProt P00915).
T4 construct: made in house
T4 sequence (P00915 whole entry): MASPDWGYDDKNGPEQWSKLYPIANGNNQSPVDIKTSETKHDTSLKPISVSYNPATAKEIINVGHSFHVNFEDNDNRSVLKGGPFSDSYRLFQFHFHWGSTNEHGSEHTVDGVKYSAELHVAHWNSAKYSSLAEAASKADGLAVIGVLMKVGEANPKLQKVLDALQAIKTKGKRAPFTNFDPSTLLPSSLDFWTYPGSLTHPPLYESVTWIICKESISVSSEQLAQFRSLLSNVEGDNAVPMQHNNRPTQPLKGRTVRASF
As to the kind of experiment: stopped-flow CO2 hydrase assay, hCA I. The class given is biochemical. As to conditions: mean from 3 different assays, errors ±5–10%. The procedure: as §1

By Ki is commonly meant a dissociation constant, usually derived from enzyme kinetics or from competition with a known ligand. Low readings indicate higher affinity, high ones lower affinity. Broadly, the melting point is the temperature of the solid-liquid transition. For `Cn1c(C(=O)Nc2ccc(S(N)(=O)=O)cc2)cc2occc21` [Compound 7a, N-[4-(aminosulfonyl)phenyl]-4-methyl-4H-furo[3,2-b]pyrrole-5-carboxamide], the melting point fell in the range of 273 to 275 °C. Also, in series [1], the Ki was determined as 0.103 µM. This compound came in with a Ki in series [2] of 0.0084 µM. This compound had a Ki in series [3] of 0.0069 µM. This compound also came in with a Ki in series [4] of 0.718 µM.

Consider `NS(=O)(=O)c1ccc(NC(=O)c2cc3occc3n2Cc2ccccc2)cc1` [Compound 7c, N-[4-(aminosulfonyl)phenyl]-4-benzyl-4H-furo[3,2-b]pyrrole-5-carboxamide], for which the melting point lay in the range of 240 to 241 °C. The affinity in series [1] corresponds to a Ki of 0.276 µM. The compound further showed a Ki in series [2] of 0.0375 µM. In series [3], this compound returned a Ki of 0.0046 µM. Besides, the affinity in series [4], expressed as Ki, was 3.56 µM.

Compound `NS(=O)(=O)c1ccc(NC(=O)c2cc3occc3n2Cc2ccccc2F)cc1` [Compound 7d, N-[4-(aminosulfonyl)phenyl]-4-(2-fluorobenzyl)-4H-furo[3,2-b]pyrrole-5-carboxamide] registered a melting point of 240 to 242 °C.

Compound `NS(=O)(=O)c1ccc(NC(=O)c2cc3occc3n2Cc2ccccc2Cl)cc1` [Compound 7e, N-[4-(aminosulfonyl)phenyl]-4-(2-chlorobenzyl)-4H-furo[3,2-b]pyrrole-5-carboxamide] showed a melting point of 239 to 241 °C. This compound displayed a Ki in series [1] of 0.239 µM. In addition, the Ki in series [2] came to 0.0238 µM. The compound also had a Ki in series [3] of 0.0196 µM. In addition, the Ki in series [4] was 0.858 µM.

`NS(=O)(=O)c1ccc(NC(=O)c2cc3occc3n2Cc2ccc(Cl)cc2)cc1` [Compound 7f, N-[4-(aminosulfonyl)phenyl]-4-(4-chlorobenzyl)-4H-furo[3,2-b]pyrrole-5-carboxamide]: the melting point lay in the range of 237 to 238 °C. Further, the Ki in series [1] is 0.187 µM. Besides, affinity in series [2] was put at a Ki of 0.0343 µM. For the same compound, in series [3], the Ki worked out at 0.0372 µM. For the same compound, in series [4], the affinity, expressed as Ki, was 0.878 µM.

The compound `Cn1c(C(=O)Nc2ccc(S(N)(=O)=O)cc2)cc2sccc21` [Compound 8a, N-[4-(aminosulfonyl)phenyl]-4-methyl-4H-thieno[3,2-b]pyrrole-5-carboxamide] had a melting point of 276 to 278 °C. Also, the Ki in series [1] was determined as 0.0666 µM. For the same compound, in series [2] (selectivity for hCA II over hCA I), the “selectivity index (SI) towards hCA I” value turned out to be 75.5. Further, the “selectivity index (SI) compared to hCA IX” value in series [2] (selectivity for hCA II over hCA IX) turned out to be 7.6. Also, the “selectivity index (SI) to hCA XII” value in series [2] (selectivity for hCA II over hCA XII) was determined as 3.5. This compound also yielded a Ki in series [2] of 0.0088 µM. This compound yielded a Ki in series [3] of 0.0307 µM. Moreover, the Ki in series [4] turned out to be 0.665 µM.

In the case of `CCn1c(C(=O)Nc2ccc(S(N)(=O)=O)cc2)cc2sccc21` [Compound 8b, N-[4-(aminosulfonyl)phenyl]-4-ethyl-4H-thieno[3,2-b]pyrrole-5-carboxamide], the melting point lay within 248 to 249 °C. The compound also yielded an inhibitory constant (Ki) in series [1] of 0.251 µM. This compound displayed an inhibition constant Ki in series [2] of 0.0068 µM. Besides, the Ki in series [3] was 0.0051 µM. Besides, in series [4], the affinity, expressed as Ki, was 0.27 µM.

Consider `NS(=O)(=O)c1ccc(NC(=O)c2cc3sccc3n2Cc2ccccc2)cc1` [Compound 8c, N-[4-(aminosulfonyl)phenyl]-4-benzyl-4H-thieno[3,2-b]pyrrole-5-carboxamide], for which the melting point was 255 to 256 °C. In series [1], this compound came in with a Ki of 0.14 µM. This compound yielded a Ki in series [2] of 0.0089 µM. The same compound gave a Ki in series [3] of 0.0078 µM. The compound further gave a Ki in series [4] of 0.4 µM.

For `NS(=O)(=O)c1ccc(NC(=O)c2cc3sccc3n2Cc2ccccc2F)cc1` [Compound 8d, N-[4-(aminosulfonyl)phenyl]-4-(2-fluorobenzyl)-4H-thieno[3,2-b]pyrrole-5-carboxamide], the melting point is 235 to 237 °C. Moreover, the Ki in series [1] was found to be 0.171 µM. This compound came in with an inhibition constant (Ki) in series [2] of 0.0087 µM. The same compound had a Ki in series [3] of 0.0082 µM. Also, the Ki in series [4] is 0.656 µM.

Take `NS(=O)(=O)c1ccc(NC(=O)c2cc3sccc3n2Cc2ccc(Cl)cc2)cc1` [Compound 8f, N-[4-(aminosulfonyl)phenyl]-4-(4-chlorobenzyl)-4H-thieno[3,2-b]pyrrole-5-carboxamide]: the melting point was in the range of 219 to 220 °C. This compound also yielded a Ki in series [1] of 0.0814 µM. Further, in series [2], the affinity, expressed as Ki, was 0.0681 µM. The Ki in series [3] was found to be 0.0089 µM. The same compound showed a Ki in series [4] of 0.699 µM.

Regarding `CC1(C(=O)Nc2ccc(S(N)(=O)=O)cc2)Oc2ccccc2NC1=O` (stereo not shown) [Compound 11, N-[4-(aminosulfonyl)phenyl]-2-methyl-3-oxo-3,4-dihydro-2H-1,4-benzoxazine-2-carboxamide], the melting point was 269 to 270 °C. For the same compound, in series [1], the Ki came out at 0.26 µM. In addition, the Ki in series [2] was found to be 0.0065 µM. In addition, the Ki in series [3] amounted to 0.0053 µM. Moreover, the Ki in series [4] stood at 0.0706 µM.

With `NS(=O)(=O)c1ccc(NC(=O)C2=C(c3ccccc3)SCCO2)cc1` [Compound 14a, N-[4-(aminosulfonyl)phenyl]-3-phenyl-5,6-dihydro-1,4-oxathiine-2-carboxamide], the Ki in series [1] came to 0.281 µM; in series [2], 0.0067 µM; in series [3], 0.0061 µM; in series [4], 0.0565 µM.

For `NS(=O)(=O)c1ccc(CCNC(=O)C2=C(c3ccccc3)SCCO2)cc1` [Compound 14b, N-{2-[4-(aminosulfonyl)phenyl]ethyl}-3-phenyl-5,6-dihydro-1,4-oxathiine-2-carboxamide], the melting point was in the range of 208 to 209 °C. For the same compound, in series [1], the inhibition constant (Ki) is 0.155 µM. The compound also registered a Ki in series [2] of 0.0074 µM. Besides, the Ki in series [3] was determined as 0.0066 µM. In series [4], this compound displayed a Ki of 0.0712 µM.

`NS(=O)(=O)c1ccc(-c2ccc(/C=c3\sc4nc(-c5cccc(Cl)c5)nn4c3=O)o2)cc1` [Compound 17a, 4-(5-{(Z)-[2-(3-chlorophenyl)-6-oxo[1,3]thiazolo[3,2-b][1,2,4]triazol-5(6H)-ylidene]methyl}-2-furyl)enzenesulfonamide]: the melting point fell in the range of 312 to 315 °C. For the same compound, the Ki in series [1] stood at 0.32 µM. Also, the Ki in series [2] was found to be 0.0447 µM. In addition, the Ki in series [3] was found to be 0.0076 µM. In series [4], this compound displayed a Ki of 2.92 µM.

Compound `COc1ccc(-c2nc3s/c(=C\c4ccc(-c5ccc(S(N)(=O)=O)cc5)o4)c(=O)n3n2)cc1OC` [Compound 17b, 4-(5-{(Z)-[2-(3,4-Dimethoxyphenyl)-6-oxo[1,3]thiazolo[3,2 b][1,2,4]triazol-5(6H)-ylidene]methyl} -2-furyl)benzenesulfonamide] registered a melting point of 294 to 295 °C. The Ki in series [1] stood at 0.253 µM. The compound further returned a Ki in series [2] of 0.0594 µM. Moreover, the Ki in series [3] is 0.0402 µM. The compound further displayed a Ki in series [4] of 0.918 µM.
